{"source": "paper PMC6591177", "about": "“Small Molecule IL-36γ Antagonist as a Novel Therapeutic Approach for Plaque Psoriasis” (Scientific Reports, 2019)", "key": {"[1]": {"tested_on": "IL-1β evoked IL-8 release from HaCaT cells", "assay": "IL-1β evoked IL-8 release assay in HaCaT cells", "type": "cell-based, human", "protocol": "(§1) The immortalized human keratinocyte cell line HaCaT and mouse fibroblast NIH-3T3 cell line were maintained in culture in DMEM with 10% fetal bovine serum and 1% penicillin/streptomycin added (Sigma). Cells were seeded in 96-well tissue culture plates (Corning) at 25,000 cells per well and allowed to adhere and recover overnight at 37 °C in an incubator. Cells were rinsed with PBS (Sigma) and treated with cytokines diluted in 200 μL/well of the medium (DMEM with 0.5% FBS and 1% penicillin/streptomycin) as indicated. In inhibition mode, the agonist concentration used was at the EC80 for chemokine production and the cells were pre-treated with inhibitors for 30 min prior to adding the agonist. After 24 h of treatment, supernatants were collected and IL-8 and CXCL1[28] levels were assessed using a custom immunoassay (Meso Scale Discovery). EC50/IC50 values were estimated from a four-parameter logistic fit using Prism software (GraphPad).\n(§2) The IL-8 release assays were miniaturized for HTS hit follow-up. Frozen aliquots of HaCaT cells were thawed, added to complete media, mixed, spun down, resuspended in fresh media, and dispensed using the Multidrop384 into black, clear-bottom 384 well plates at a final density of 4000 cells/well. […] Cell viability was assessed using Cell Titer-Glo (Promega) according to the manufacturers’ instructions."}, "HaCaT cells [2]": {"tested_on": "HaCaT cells", "assay": "Cell viability (Cell Titer-Glo) counter screen", "type": "cell-based, human", "protocol": "The IL-8 release assays were miniaturized for HTS hit follow-up. Frozen aliquots of HaCaT cells were thawed, added to complete media, mixed, spun down, resuspended in fresh media, and dispensed using the Multidrop384 into black, clear-bottom 384 well plates at a final density of 4000 cells/well. After a 24 h recovery period at 37 °C/5% CO2, the cell plates were rinsed twice with 40 μL/well fresh media. The Biomek FX workstation was then used to add 10 μL/well compounds. Cell plates were then returned to 37 °C for 15 min incubation, followed by the addition of 10 μl/well of IL-36γ (40 ng/ml final). After an additional 5 h of incubation at 37 °C, 5 μl/well of cell supernatant was removed with the Biomek FX and transferred to a 384 well Proxy Plate for IL-8 detection using the HTRF kit from Cisbio. For the IL-1β evoked release of IL-8, the same protocol was followed, but with a final concentration of 1 ng/mL IL-1β and an overnight incubation instead of 5 h. Cell viability was assessed using Cell Titer-Glo (Promega) according to the manufacturers’ instructions."}, "[3]": {"tested_on": "human IL-36γ evoked CXCL1 release from Human HaCaT cells", "assay": "human IL-36γ evoked CXCL1 release, human HaCaT cells", "type": "cell-based", "settings": "± S.D.", "protocol": "as §1"}, "[4]": {"tested_on": "IL-36γ evoked CXCL1 release from Mouse NIH-3T3 cells", "assay": "IL-36γ evoked CXCL1 release, mouse NIH-3T3 cells", "type": "cell-based", "settings": "human IL-36γ evoked CXCL1 release, ± S.D.", "protocol": "as §1"}, "human IL-36γ": {"biological_target": "T1, human IL-36γ (Homo sapiens, UniProt Q9NZH8)", "T1 construct": "His6-SUMO-human IL-36γ (18–169); His6-SUMO (N, cleaved yes); made in house; host or cells: E. coli BL21 (DE3)", "T1 sequence (Q9NZH8 18-169)": "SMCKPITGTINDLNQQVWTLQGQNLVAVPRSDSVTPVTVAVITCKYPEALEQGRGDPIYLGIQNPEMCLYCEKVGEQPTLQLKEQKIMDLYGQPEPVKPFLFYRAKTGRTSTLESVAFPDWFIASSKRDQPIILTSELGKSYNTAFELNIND", "assay": "Thermal shift assay, human IL-36γ", "type": "binding", "settings": "100 μM compound; read-out: increase of melting temperature of human IL-36γ", "protocol": "(§3) Thermal shift assays[30] were performed on a Roche LightCycler 480 instrument using Sypro Orange Dye (Invitrogen). Reactions consisted of 0.5–2 µM purified recombinant protein in PBS, pH 7.4, a 1/500 dilution of the stock Sypro Orange reagent, and 100 µM test compounds, resulting in a final DMSO concentration of 1%. The samples were heated from 20 °C to 95 °C at a rate of 0.25 °C per second."}, "human IL-36α": {"biological_target": "T2, human IL-36α (Homo sapiens, UniProt Q9UHA7)", "T2 construct": "using recombinant truncated proteins", "T2 sequence (Q9UHA7 6-158)": "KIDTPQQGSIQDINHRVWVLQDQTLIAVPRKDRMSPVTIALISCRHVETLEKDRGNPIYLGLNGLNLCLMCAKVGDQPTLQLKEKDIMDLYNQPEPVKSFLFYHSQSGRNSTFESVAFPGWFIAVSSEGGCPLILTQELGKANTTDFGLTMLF", "assay": "Thermal shift assay / affinity, human IL-36α", "type": "binding", "settings": "thermal shift assay at 100 μM (Supplementary Fig. 4)", "protocol": "as §3"}, "HaCaT cells [5]": {"tested_on": "HaCaT cells", "assay": "mouse IL-36γ induction of CXCL1 release from HaCaT cells", "type": "cell-based, human", "settings": "agonist mode", "protocol": "as §1"}, "[6]": {"biological_target": "T3, human IL-36R/IL-1RAcP extracellular domain (ECD) knob-in-hole Fc (human, UniProt Q9HB29 20-335; Q9NPH3 21-367)", "T3 construct": "human IL-36 receptor subunit (IL-36R), extracellular domain; human IL-1RAcP co-receptor subunit, extracellular domain; Both proteins were engineered with an Fc 'knob-in-hole' to force heterodimerisation; also called hIL-36R/IL-1RAcP ECD knob-in-hole Fc; human IL-36R/IL-1RAcP ECD Fc heterodimer; not shown: His tag (from the nickel column and the Tb-anti-His detection)", "T3 sequence (looked up) 1": "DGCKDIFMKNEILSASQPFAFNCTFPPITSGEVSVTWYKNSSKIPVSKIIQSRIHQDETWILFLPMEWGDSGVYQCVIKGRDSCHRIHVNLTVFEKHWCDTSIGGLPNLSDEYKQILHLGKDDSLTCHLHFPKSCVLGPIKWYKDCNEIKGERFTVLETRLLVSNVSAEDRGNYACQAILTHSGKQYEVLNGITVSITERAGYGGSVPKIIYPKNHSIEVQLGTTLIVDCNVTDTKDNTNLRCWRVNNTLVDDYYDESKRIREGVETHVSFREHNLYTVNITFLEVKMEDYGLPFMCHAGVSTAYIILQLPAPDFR", "T3 sequence (looked up) 2": "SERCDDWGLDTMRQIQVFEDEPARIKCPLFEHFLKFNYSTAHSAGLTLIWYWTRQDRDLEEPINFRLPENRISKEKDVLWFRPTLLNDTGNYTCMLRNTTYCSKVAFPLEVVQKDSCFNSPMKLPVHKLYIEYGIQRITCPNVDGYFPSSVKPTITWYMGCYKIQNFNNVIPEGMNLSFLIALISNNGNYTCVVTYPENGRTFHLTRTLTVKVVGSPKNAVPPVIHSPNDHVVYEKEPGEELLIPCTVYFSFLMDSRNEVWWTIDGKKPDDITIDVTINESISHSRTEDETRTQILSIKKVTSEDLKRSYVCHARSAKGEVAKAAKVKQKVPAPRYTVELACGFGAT", "assay": "AlphaScreen or HTRF; TR-FRET, direct binding: receptor heterodimer 1.5 μg/mL with 6 nM Tb-anti-His antibody, Alexa 488 IL-36γ titrated; 1% BSA in 1X PBS; overnight at 4 °C, read at room temperature; ratio 520 nm/495 nm", "settings": "both partners purified"}, "[7]": {"tested_on": "IL-36γ evoked IL-8 release from HaCaT cells", "assay": "IL-36γ evoked IL-8 release assay from HaCaT cells", "type": "cell-based, human", "settings": "agonist mode, n = 4", "protocol": "as §1, §2"}, "IL-36 receptor": {"biological_target": "T4, IL-36 receptor (Homo sapiens, UniProt Q9HB29)", "T4 chain": "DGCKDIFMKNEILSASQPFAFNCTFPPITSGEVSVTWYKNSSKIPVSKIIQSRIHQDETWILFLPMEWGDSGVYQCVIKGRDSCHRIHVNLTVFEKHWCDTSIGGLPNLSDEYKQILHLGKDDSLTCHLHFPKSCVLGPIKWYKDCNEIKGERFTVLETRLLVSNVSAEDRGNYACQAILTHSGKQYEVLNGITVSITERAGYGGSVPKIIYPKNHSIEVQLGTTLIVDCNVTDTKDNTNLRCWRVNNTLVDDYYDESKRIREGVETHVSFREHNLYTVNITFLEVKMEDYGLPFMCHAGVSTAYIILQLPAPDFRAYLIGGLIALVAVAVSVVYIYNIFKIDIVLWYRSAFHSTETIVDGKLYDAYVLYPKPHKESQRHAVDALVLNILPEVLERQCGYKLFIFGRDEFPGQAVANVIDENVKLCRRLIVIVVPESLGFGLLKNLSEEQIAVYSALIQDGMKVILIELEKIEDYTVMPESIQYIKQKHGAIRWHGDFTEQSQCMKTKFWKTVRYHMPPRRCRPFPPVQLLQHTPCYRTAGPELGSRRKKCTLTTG", "assay": "IL-8 release assay in HaCaT cells"}, "[8]": {"biological_target": "T3, human IL-36R/IL-1RAcP extracellular …", "assay": "AlphaScreen or HTRF; TR-FRET, competitive mode: unlabeled human IL-36γ or IL-36Ra titrated against 6 nM Alexa 488 human IL-36γ, receptor heterodimer 1.5 μg/mL, 6 nM Tb-anti-His antibody; Ki by the Cheng-Prusoff equation", "settings": "both partners purified"}}, "data": [{"molecule": "COC(c1ccccc1)(c1ccccc1)C(Oc1nc(C)cc(-c2ccc(C)c(N)c2)n1)C(=O)O", "note": "(centres unmarked) [Compound A-706]", "values": [{"measurement": "activity in the hIL-1β induced IL-8 release assay", "setting": "[1]", "value": "no activity"}, {"measurement": "cellular toxicity", "setting": "HaCaT cells [2]", "value": "no activity in the hIL-1β induced IL-8 release assay or cellular toxicity"}, {"measurement": "Ki", "setting": "[3]", "value": "121 ± 32", "unit": "nM"}, {"measurement": "Ki", "setting": "[4]", "value": "181 ± 54", "unit": "nM"}, {"measurement": "ΔTm at 100 µM", "setting": "human IL-36γ", "value": 5.4, "unit": "°C"}, {"measurement": "binding / affinity to human IL-36α", "setting": "human IL-36α", "value": "do not bind"}]}, {"molecule": "mouse IL-36γ: mouse IL-36γ cytokine (protein, UniProt Q8R460 13-164, looked up) Interleukin-36 gamma: GRETPDFGEVFDLDQQVWIFRNQALVTVPRSHRVTPVSVTILPCKYPESLEQDKGIAIYLGIQNPDKCLFCKEVNGHPTLLLKEEKILDLYHHPEPMKPFLFYHTRTGGTSTFESVAFPGHYIASSKTGNPIFLTSKKGEYYNINFNLDIKS", "values": [{"measurement": "induction of CXCL1 release from HaCaT cells", "setting": "HaCaT cells [5]", "value": "cannot induce CXCL1 release"}]}, {"molecule": "N-terminal labeled Alexa 488 human IL-36γ (ligand, UniProt Q9NZH8 18-169, looked up, Alexa Fluor 488 (N-hydroxysuccinimidyl ester); called N-terminal labeled, human IL-36γ, residues 18-169; Same protein as m3, with the dye; also called Alexa-488 labeled hIL-36γ; NHS-AlexaFluor-488 conjugated human IL-36γ; not shown: His6, N-terminal, cleaved; SUMO, N-terminal, cleaved) SMCKPITGTINDLNQQVWTLQGQNLVAVPRSDSVTPVTVAVITCKYPEALEQGRGDPIYLGIQNPEMCLYCEKVGEQPTLQLKEQKIMDLYGQPEPVKPFLFYRAKTGRTSTLESVAFPDWFIASSKRDQPIILTSELGKSYNTAFELNIND", "values": [{"measurement": "EC50", "setting": "[6]", "value": 0.3, "unit": "nM"}]}, {"molecule": "human IL-36γ: recombinant human IL-36γ (18–169) cytokine, IL-36R agonist (protein, left off: His6, N-terminal, cleaved | SUMO, N-terminal, cleaved, recombinant human IL-36γ (18–169) cytokine, IL-36R agonist) SMCKPITGTINDLNQQVWTLQGQNLVAVPRSDSVTPVTVAVITCKYPEALEQGRGDPIYLGIQNPEMCLYCEKVGEQPTLQLKEQKIMDLYGQPEPVKPFLFYRAKTGRTSTLESVAFPDWFIASSKRDQPIILTSELGKSYNTAFELNIND", "values": [{"measurement": "EC50", "setting": "[7]", "value": "0.2 ± 0.1", "unit": "nM"}]}, {"molecule": "human IL-36Ra (2–155) (ligand, UniProt Q9UBH0 2-155, looked up, human IL-36 receptor antagonist (IL-36Ra), residues 2-155; also called hIL-36Ra; recombinant soluble hIL-36Ra; source: E. coli BL21 (DE3), purified (nickel column, ULP1 cleavage, Superdex 75 gel filtration); not shown: His6, N-terminal, cleaved; SUMO, N-terminal, cleaved) VLSGALCFRMKDSALKVLYLHNNQLLAGGLHAGKVIKGEEISVVPNRWLDASLSPVILGVQGGSQCLSCGVGQEPTLTLEPVNIMELYLGAKESKSFTFYRRDMGLTSSFESAAYPGWFLCTVPEADQPVRLTQLPENGGWNAPITDFYFQQCD", "values": [{"measurement": "Ki", "setting": "IL-36 receptor", "value": 0.6, "unit": "nM"}, {"measurement": "Ki", "setting": "[8]", "value": 2, "unit": "nM"}]}]}
